pIC50: −log10 of the molar value. Where two headings read alike, the source gives them in different places. Marks after values point to notes of the source that are not given here.

Assay [1] has as its target T1, human PTEFb (CDK9/Cyclin T1) (Homo sapiens, UniProt P50750).
T1 construct: purchased ProQinase, Freiburg, Germany
Kind of assay: Surface Plasmon Resonance PTEFb. It counts as binding. The settings on record: for koff: read-out: Dissociation rate constant koff; for Target resident time: 1/koff. An excerpt:
8. Surface Plasmon Resonance PTEFb
The ability of the compounds according to the invention to bind human PTEFb may be determined using surface plasmon resonance (SPR). KD values and koff values may be measured using a Biacoret T200 instrument (GE Healthcare, Uppsala, Sweden).
For SPR measurements, recombinant human PTEFb (CDK9/Cyclin T1 recombinant human active protein kinase purchased from ProQinase, Freiburg, Germany) is immobilized using standard amine coupling (Johnsson B et al, Anal Biochem. 1991 Nov. 1; 198(2):268-77). Briefly, carboxymethylated dextran biosensor chips (CM7, GE Healthcare) are activated with N-ethyl-N′-(3-dimethylaminopropyl)-carbodiimide hydrochloride (EDC) and N-hydroxysuccinimide (NHS) according to the supplier's instructions. Human PTEFb is diluted in 1×HBS-EP+(GE Healthcare) into 30 μg/ml and injected on the activated chip surface. Subsequently, a 1:1 solution of 1 M ethanolamine-HCl (GE Healthcare) and 1×HBS-EP is injected to block unreacted groups, resulting in approximately 4000 response units (RU) of immobilized protein. A reference surface is generated by treatment with NHS-EDC and ethanolamine-HCl. Compounds are dissolved in 100% dimethylsulfoxide (DMSO, Sigma-Aldrich, Germany) to a concentration of 10 mM and subsequently diluted in running buffer (1×HBS-EP+pH 7.4 [generated from HBS-EP+Buffer 10×(GE Healthcare): 0.1 M HEPES, 1.5 M NaCl, 30 mM EDTA and 0.5% v/v Surfactant P20], 1% v/v DMSO). For kinetic measurements, four-fold serial dilutions of compound (0.39 nM to 100 nM) are injected over immobilized protein. […] Compound concentrations are injected for 60 s followed by a dissociation time of 1800 s. The resulting sensorgrams are double-referenced against the reference surface as well as against blank injections.
The double-referenced sensorgrams are fit to a simple reversible Langmuir 1:1 reaction mechanism as implemented in the Biacore® T200 evaluation software 2.0 (GE Healthcare). In cases were full compound dissociation has not occurred at the end of the dissociation phase, the Rmax parameter (response at saturation) is fit as local variable. In all other cases, Rmax is fit as global variable.

The subject of a further assay is DU145. In words: Proliferation assay, crystal violet. It counts as cell-based. The note with it: Homo sapiens, DU-145, 96 h; DU145, 4 days; read-out: Inhibition of DU145 cell proliferation IC50. How it is done: (§1) Cultivated tumour cells (HeLa, human cervical tumour cells, ATCC CCL-2; NCI—H460, human non-small cell lung carcinoma cells, ATCC HTB-177; DU 145, hormone-independent human prostate carcinoma cells, ATCC HTB-81; HeLa-MaTu-ADR, multidrug-resistant human cervical carcinoma cells, EPO-GmbH Berlin; Caco-2, human colorectal carcinoma cells, ATCC HTB-37; B16F10, mouse melanoma cells, ATCC CRL-6475) were plated at a density of 3,500 cells/well (DU145), 3,000 cells/well (HeLa-MaTu-ADR), 1,500 cells/well (NCI—H460), 3,000 cells/well (HeLa), 2,000 cells/well (Caco-2), or 1,000 cells/well (B16F10) in a 96-well multititer plate in 150 μL of their respective growth medium supplemented 10% fetal calf serum. After 24 hours, the cells of one plate (zero-point plate) were stained with crystal violet (see below), the test substances were added in various concentrations (0 μM, as well as in the range of 0.0001-10 μM) employing HP Dispenser. The cells were incubated for 4 days in the presence of test substances. Cell proliferation was determined by staining the cells with crystal violet: the cells were fixed by adding 20 μl/measuring point of an 11% glutaric aldehyde solution for 15 minutes at room temperature. After three washing cycles of the fixed cells with water, the plates were dried at room temperature. The cells were stained by adding 100 μl/measuring point of a 0.1% crystal violet solution DU 145, Caco-2, HeLa (pH 4.5) B16F10, NCI—H460, HeLa-MaTu-ADR. After three washing cycles of the stained cells with water, the plates were dried at room temperature. The dye was dissolved by adding 100 μl per measuring point of a 10% acetic acid solution. The extinction was determined by photometry at a wavelength of 595/550/620 nm depending on the intensity of coloration, usually at 595 nm. The change of cell number, in percent, was calculated by normalization of the measured values to the extinction values of the zero-point plate (=0%) and the extinction of the untreated (0 μM) cells (=100%). The IC50 values (inhibitory concentration at 50% of maximal effect) were determined by means of a 4 parameter fit.

For another assay, the system named is Caco-2. Kind of assay: Proliferation assay, crystal violet. The format is cell-based. The settings on record: Homo sapiens, 96 h; Caco-2, 4 days; read-out: Inhibition of Caco-2 cell proliferation IC50. How it is done:
as §1

The next assay has as its system B16F10. Kind of assay: Proliferation assay, crystal violet. The format is cell-based. The settings on record: Mus musculus, B16-F10, 96 h; B16F10, 4 days; read-out: Inhibition of B16F10 cell proliferation IC50. The method, then: as §1
The next assay relates to HeLa. Kind of assay: Proliferation assay, crystal violet. The format is cell-based. The settings on record: Homo sapiens, 96 h, 4 days, read-out: Inhibition of HeLa cell proliferation IC50. How it is done: as §1
In a further assay the test system is NCI-H460. Kind of assay: Proliferation assay, crystal violet. It counts as cell-based. The note with it: Homo sapiens, 96 h; NCI-H460, 4 days; read-out: Inhibition of NCI-H460 cell proliferation IC50. How it is done:
as §1

T1 sequence (P50750 whole entry): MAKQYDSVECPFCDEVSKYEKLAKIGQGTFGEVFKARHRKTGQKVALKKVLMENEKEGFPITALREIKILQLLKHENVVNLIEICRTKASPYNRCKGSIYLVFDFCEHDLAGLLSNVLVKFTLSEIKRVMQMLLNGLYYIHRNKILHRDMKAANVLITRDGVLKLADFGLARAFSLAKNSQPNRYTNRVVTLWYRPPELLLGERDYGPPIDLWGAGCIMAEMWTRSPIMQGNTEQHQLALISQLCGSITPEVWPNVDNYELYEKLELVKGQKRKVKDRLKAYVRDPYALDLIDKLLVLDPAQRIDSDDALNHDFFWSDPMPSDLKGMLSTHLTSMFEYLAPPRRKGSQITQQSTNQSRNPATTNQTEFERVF
T1 sequence (O60563 whole entry partner): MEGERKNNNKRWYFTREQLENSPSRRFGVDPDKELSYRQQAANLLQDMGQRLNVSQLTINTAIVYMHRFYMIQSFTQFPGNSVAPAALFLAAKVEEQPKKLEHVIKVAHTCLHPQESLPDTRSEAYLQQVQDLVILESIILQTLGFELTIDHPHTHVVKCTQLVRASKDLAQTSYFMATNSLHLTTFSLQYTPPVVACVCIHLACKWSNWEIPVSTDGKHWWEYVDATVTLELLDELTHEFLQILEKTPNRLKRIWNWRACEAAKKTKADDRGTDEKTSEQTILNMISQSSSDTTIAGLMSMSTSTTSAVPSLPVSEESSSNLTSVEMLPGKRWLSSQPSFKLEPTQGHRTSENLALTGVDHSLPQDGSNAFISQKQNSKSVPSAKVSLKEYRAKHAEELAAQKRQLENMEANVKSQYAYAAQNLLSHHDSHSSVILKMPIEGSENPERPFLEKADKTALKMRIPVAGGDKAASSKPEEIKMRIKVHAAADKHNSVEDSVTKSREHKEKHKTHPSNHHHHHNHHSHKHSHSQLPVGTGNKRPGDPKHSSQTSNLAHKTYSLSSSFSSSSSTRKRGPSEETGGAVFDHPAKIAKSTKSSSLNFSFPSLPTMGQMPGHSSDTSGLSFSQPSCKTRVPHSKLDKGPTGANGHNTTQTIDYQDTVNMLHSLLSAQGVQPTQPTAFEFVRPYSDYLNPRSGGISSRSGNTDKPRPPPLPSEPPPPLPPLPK

For the compound `CN=S(C)(=N)Cc1cc2nc(c1)OCCCOc1cc(F)ccc1-c1cc(ncc1F)N2` (racemic) [Example 4, (rac)-8-[(N,S-dimethylsulfonodiimidoyl)methyl]-15,19-difluoro-3,4-dihydro-2H,11H-10,6-(azeno)-12,16-(metheno)-1,5,11,13-benzodioxadiazacyclooctadecine], the koff in assay [1] (25° C., Parameters B) came to 4.96e-05 s⁻¹. Moreover, in assay [1] (25° C., Parameters D), the Target resident time is given as 70 min and the koff turned out to be 0.000237 s⁻¹.

Consider `CS(=N)(=N)Cc1cc2nc(c1)OCCCOc1cc(F)ccc1-c1cc(ncc1F)N2` [Example 1, 15,19-difluoro-8-[(S-methylsulfonodiimidoyl)methyl]-3,4-dihydro-2H,11H-10,6-(azeno)-12,16-(metheno)-1,5,11,13-benzodioxadiazacyclooctadecine], for which the pIC50 was 8.04 in the assay on DU145; 7.79 with Caco-2; 7.84 in the assay on B16F10; 8.55 in the assay on HeLa; 7.98 in the assay with NCI-H460. Further, the Target resident time in assay [1] (25° C., Parameters A) is recorded as more than 333 min; in assay [1] (25° C., Parameters B), more than 666 min. For the same compound, the koff in assay [1] (25° C., Parameters A) was less than 5e-05 s⁻¹; in assay [1] (25° C., Parameters B), less than 2.5e-05 s⁻¹.

Take `CS(=N)(Cc1cc2nc(c1)OCCCOc1cc(F)ccc1-c1cc(ncc1F)N2)=NC#N` (racemic) [Example 3, (rac)-[{[15,19-difluoro-3,4-dihydro-2H,11H-10,6-(azeno)-12,16-(metheno)-1,5,11,13-benzodioxadiazacyclooctadecin-8-yl]methyl}(imino)methyl-λ^6-sulfanylidene]cyanamide]: the Target resident time was more than 666 min in assay [1] (25° C., Parameters B) and more than 333 min in assay [1] (25° C., Parameters C). For the same compound, the koff in assay [1] (25° C., Parameters B) is less than 2.5e-05 s⁻¹; in assay [1] (25° C., Parameters C), less than 5e-05 s⁻¹.

Regarding `CS(=N)(Cc1cc2nc(c1)OCCCOc1cc(F)ccc1-c1cc(ncc1F)N2)=NCCCO` (racemic) [Example 2, (rac)-3-(2-{[15,19-difluoro-3,4-dihydro-2H,11H-10,6-(azeno)-12,16-(metheno)-1,5,11,13-benzodioxadiazacyclooctadecin-8-yl]methyl}-2-methyl-2λ^6-diazathia-1,2-dien-1-yl)propan-1-ol], the pIC50 in the assay on DU145 was 7.53; in the assay on Caco-2, 7.54; in the assay on B16F10, 7.43; with HeLa it was 7.99; in the assay with NCI-H460, 7.05. Moreover, the Target resident time was more than 666 min in assay [1] (25° C., Parameters B) and more than 333 min in assay [1] (25° C., Parameters C). For the same compound, the koff is less than 2.5e-05 s⁻¹ in assay [1] (25° C., Parameters B) and less than 5e-05 s⁻¹ in assay [1] (25° C., Parameters C).

As to `CS(=N)(Cc1cc2cc(c1)OCCCCOc1cc(F)ccc1-c1nc(ncc1F)N2)=NC1CC1` (racemic) [Example 9, (rac)-9-[(N-cyclopropyl-S-methylsulfonodiimidoyl)methyl]-16,20-difluoro-2,3,4,5-tetrahydro-12H-13,17-(azeno)-11,7-(metheno)-1,6,12,14-benzodioxadiazacyclononadecine], the pIC50 was 6.93 with DU145; 7.32 with Caco-2; 7.04 in the assay with B16F10; 7.50 in the assay with HeLa; 7.25 in the assay on NCI-H460. In assay [1] (25° C., Parameters F), the Target resident time is 79* min. The koff in assay [1] (25° C., Parameters F) stood at 0.000211 s⁻¹.

For the compound `CS(=N)(=N)Cc1cc2cc(c1)OCCCCOc1c(F)cccc1-c1nc(ncc1F)N2` [Example 7, 16,21-difluoro-9-[(S-methylsulfonodiimidoyl)methyl]-2,3,4,5-tetrahydro-12H-13,17-(azeno)-11,7-(metheno)-1,6,12,14-benzodioxadiazacyclononadecine], the pIC50 was 6.40 with DU145; 6.40 in the assay with Caco-2; 6.11 in the assay on B16F10; 6.48 with HeLa; 6.35 in the assay on NCI-H460. For the same compound, the Target resident time in assay [1] (25° C., Parameters G) is recorded as 11* min. The koff in assay [1] (25° C., Parameters G) came out at 0.00154 s⁻¹.

As for `CN=S(C)(=N)Cc1cc2cc(c1)OCCCCOc1cc(F)ccc1-c1nc(ncc1F)N2` (racemic) [Example 10, (rac)-9-[(N,S-dimethylsulfonodiimidoyl)methyl]-16,20-difluoro-2,3,4,5-tetrahydro-12H-13,17-(azeno)-11,7-(metheno)-1,6,12,14-benzodioxadiazacyclononadecine], in assay [1] (37° C., Parameters E), the Target resident time is 20* min and the koff stood at 0.000833 s⁻¹.

`CS(=N)(=N)Cc1cc2cc(c1)OCCCCOc1cc(F)ccc1-c1nc(ncc1F)N2` [Example 5, 16,20-difluoro-9-[(S-methylsulfonodiimidoyl)methyl]-2,3,4,5-tetrahydro-12H-13,17-(azeno)-11,7-(metheno)-1,6,12,14-benzodioxadiazacyclononadecine]: the pIC50 in the assay on DU145 is 7.44; in the assay with Caco-2 it was 7.45; in the assay with B16F10 it was 7.30; in the assay on HeLa it was 7.59; with NCI-H460, 7.42. Also, the Target resident time in assay [1] (25° C., Parameters C) is given as 49 min; in assay [1] (25° C., Parameters D), 40 min; in assay [1] (37° C., Parameters E) it was 21* min. Besides, the koff in assay [1] (25° C., Parameters C) came out at 0.000338 s⁻¹; in assay [1] (25° C., Parameters D), 0.000412 s⁻¹; in assay [1] (37° C., Parameters E) it was 0.000809 s⁻¹.

For the compound `CS(=N)(=N)Cc1cc2cc(c1)OCCCCOc1c(ccc(F)c1F)-c1nc(ncc1F)N2` [Example 6, 16,20,21-trifluoro-9-[(S-methylsulfonodiimidoyl)methyl]-2,3,4,5-tetrahydro-12H-13,17-(azeno)-11,7-(metheno)-1,6,12,14-benzodioxadiazacyclononadecine], the pIC50 was 6.44 in the assay with DU145; 6.49 in the assay on Caco-2; 6.17 with B16F10; 6.50 with HeLa; 6.43 with NCI-H460. For the same compound, in assay [1] (25° C., Parameters B), the Target resident time is on record as 9* min. Also, the koff in assay [1] (25° C., Parameters B) was determined as 0.00188 s⁻¹.

As to `CS(=N)(=N)Cc1cc2nc(c1C#N)OCCCOc1cc(F)ccc1-c1cc(ncc1F)N2` [Example 8, 15,19-difluoro-8-[(S-methylsulfonodiimidoyl)methyl]-3,4-dihydro-2H,11H-10,6-(azeno)-12,16-(metheno)-1,5,11,13-benzodioxadiazacyclooctadecine-7-carbonitrile], the pIC50 is 7.95 with DU145, 7.37 in the assay on Caco-2, 7.29 in the assay with B16F10 and 8.26 with HeLa. The Target resident time in assay [1] (25° C., Parameters G) is recorded as 51* min. In addition, in assay [1] (25° C., Parameters G), the koff was found to be 0.000326 s⁻¹.

The values above are taken from US10717749B2, “Macrocyclic sulfondiimine compounds” (BAYER PHARMA AKTIENGESELLSCHAFT, priority 2015, dated 2020).
